Measurements as given in patent US20110105540A1, “2-AMINO-9-[4-(4-METHOXY-PHENOXY)-PIPERIDIN-1-YL]-4-PHENYL-INDENO[1,2-D]PYRIMIDIN-5-ONE AND ITS USE AS A HIGHLY SELECTIVE ADENOSINE A2a RECEPTOR ANTAGONIST” (priority 2009, published 2011).
pIC50: −log10 of the molar value.

Columns and labels:
[1] = target: T1, human adenosine A1 receptor (Homo sapiens, UniProt P30542); assay: Adenosine A1 Receptor Functional Assay (A1GAL2); assay type: cell-based; conditions: CHO-K1 cells overexpressing human A1 receptor, cAMP inducible beta-galactosidase reporter, 4 nM r-PIA/1 uM Forskolin agonist challenge
T1 construct: expressed in transfected cells; host or cells: CHO-K1
T1 sequence (P30542 1-326): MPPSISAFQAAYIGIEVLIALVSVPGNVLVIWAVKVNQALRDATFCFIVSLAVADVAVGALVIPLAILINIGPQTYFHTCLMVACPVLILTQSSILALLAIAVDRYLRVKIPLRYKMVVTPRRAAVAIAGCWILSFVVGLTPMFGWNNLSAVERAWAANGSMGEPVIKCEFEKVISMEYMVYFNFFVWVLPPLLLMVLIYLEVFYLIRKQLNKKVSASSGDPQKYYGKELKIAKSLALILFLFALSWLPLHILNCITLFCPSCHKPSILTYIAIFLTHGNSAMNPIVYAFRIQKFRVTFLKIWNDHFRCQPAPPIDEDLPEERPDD
Protocol: To initiate the functional assay, cryopreserved CHO-K1 cells overexpressing the human adenosine A1 receptor and containing a cAMP inducible beta-galactosidase reporter gene were thawed, centrifuged, DMSO containing media removed, and then seeded with fresh culture media into clear 384-well tissue culture treated plates (BD #353961) at a concentration of 10K cells/well. Prior to assay, these plates were cultured for two days at 37° C., 5% CO2, 90% Rh. On the day of the functional assay, culture media was removed and replaced with 45 μL assay medium (Hams/F-12 Modified (Mediatech #10-080CV) supplemented w/0.1% BSA). Test compounds were diluted and 11 point curves created at a 1000× concentration in 100% DMSO. Immediately after addition of assay media to the cell plates, […] of the appropriate test compound antagonist or agonist control curves were added to cell plates using a Cartesian Hummingbird. Compound curves were allowed to incubate at room temperature on cell plates for approximately 15 minutes before addition of a 4 nM r-PIA (Sigma P4532)/1 uM Forskolin (Sigma F3917) agonist challenge (5 μL volume). […] Plates were counted at 405 nm on a SpectraMax Microplate Reader (Molecular Devices). Data was analyzed in Microsoft Excel and IC/EC50 curves were fit using a standardized macro.

[2] = target: T2, human adenosine A2A receptor (Homo sapiens, UniProt P29274); assay: Adenosine A2A Receptor Functional Assay (A2AGAL2); assay type: cell-based
T2 construct: expressed in transfected cells; host or cells: CHO-K1
Protocol: To initiate the functional assay, cryopreserved CHO-K1 cells overexpressing the human adenosine A2A receptor and containing a cAMP inducible beta-galactosidase reporter gene were thawed, centrifuged, DMSO containing media removed, and then seeded with fresh culture media into clear 384-well tissue culture treated plates (BD #353961) at a concentration of 10K cells/well. Prior to assay, these plates were cultured for two days at 37° C., 5% CO2, 90% Rh. On the day of the functional assay, culture media was removed and replaced with 45 μL assay medium (Hams/F-12 Modified (Mediatech #10-080CV) supplemented w/0.1% BSA). Test compounds were diluted and 11 point curves created at a 1000× concentration in 100% DMSO. Immediately after addition of assay media to the cell plates, 50 nL of the appropriate test compound antagonist or agonist control curves were added to cell plates using a Cartesian Hummingbird. Compound curves were allowed to incubate at room temperature on cell plates for approximately 15 minutes before addition of a 15 nM NECA (Sigma E2387) agonist challenge (5 μL volume). […]
The colorimetric reaction was stopped with the addition of 60 μL/well 1M sodium carbonate. Plates were counted at 405 nm on a SpectraMax Microplate Reader (Molecular Devices). Data was analyzed in Microsoft Excel and IC/EC50 curves were fit using a standardized macro.

T2 sequence (P29274 whole entry): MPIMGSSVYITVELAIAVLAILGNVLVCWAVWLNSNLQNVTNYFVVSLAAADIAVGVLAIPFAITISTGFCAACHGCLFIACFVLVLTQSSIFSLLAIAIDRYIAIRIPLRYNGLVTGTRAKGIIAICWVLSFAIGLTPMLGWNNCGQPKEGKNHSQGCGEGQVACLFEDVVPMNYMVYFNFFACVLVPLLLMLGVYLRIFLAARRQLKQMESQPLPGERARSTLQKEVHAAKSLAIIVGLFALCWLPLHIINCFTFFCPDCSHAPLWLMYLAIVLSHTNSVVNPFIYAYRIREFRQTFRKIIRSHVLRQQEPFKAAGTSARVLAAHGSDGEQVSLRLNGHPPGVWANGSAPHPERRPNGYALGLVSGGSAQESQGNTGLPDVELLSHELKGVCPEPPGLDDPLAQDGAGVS

In the case of `COc1ccc(OC2CCN(c3cccc4c3-c3nc(N)nc(-c5ccccc5)c3C4=O)CC2)cc1` [Example A, 2-Amino-9-[4-(4-methoxy-phenoxy)-piperidin-1-yl]-4-phenyl-indeno[1,2-d]pyrimidin-5-one], the pIC50 [1] was 5.14, the pIC50 ([2]; CHO-K1 cells overexpressing human A2A receptor, cAMP inducible beta-galactosidase reporter, 15 nM NECA agonist challenge) was 8.64 and the A1/A2A ([2]; ratio of A1Gal2 to A2AGal2 values (selectivity for A2A over A1)) was 3173.91.
